As a reminder, the IC50 is the concentration at which inhibition is half-maximal.

In one test the target is T1, human Cav3.2 T-type Ca2+ channel (Homo sapiens, UniProt O95180).
T1 construct: expressed in transfected cells; host or cells: KJMGER8 cells (Namalwa cell-derived cell line)
T1 sequence (O95180 whole entry): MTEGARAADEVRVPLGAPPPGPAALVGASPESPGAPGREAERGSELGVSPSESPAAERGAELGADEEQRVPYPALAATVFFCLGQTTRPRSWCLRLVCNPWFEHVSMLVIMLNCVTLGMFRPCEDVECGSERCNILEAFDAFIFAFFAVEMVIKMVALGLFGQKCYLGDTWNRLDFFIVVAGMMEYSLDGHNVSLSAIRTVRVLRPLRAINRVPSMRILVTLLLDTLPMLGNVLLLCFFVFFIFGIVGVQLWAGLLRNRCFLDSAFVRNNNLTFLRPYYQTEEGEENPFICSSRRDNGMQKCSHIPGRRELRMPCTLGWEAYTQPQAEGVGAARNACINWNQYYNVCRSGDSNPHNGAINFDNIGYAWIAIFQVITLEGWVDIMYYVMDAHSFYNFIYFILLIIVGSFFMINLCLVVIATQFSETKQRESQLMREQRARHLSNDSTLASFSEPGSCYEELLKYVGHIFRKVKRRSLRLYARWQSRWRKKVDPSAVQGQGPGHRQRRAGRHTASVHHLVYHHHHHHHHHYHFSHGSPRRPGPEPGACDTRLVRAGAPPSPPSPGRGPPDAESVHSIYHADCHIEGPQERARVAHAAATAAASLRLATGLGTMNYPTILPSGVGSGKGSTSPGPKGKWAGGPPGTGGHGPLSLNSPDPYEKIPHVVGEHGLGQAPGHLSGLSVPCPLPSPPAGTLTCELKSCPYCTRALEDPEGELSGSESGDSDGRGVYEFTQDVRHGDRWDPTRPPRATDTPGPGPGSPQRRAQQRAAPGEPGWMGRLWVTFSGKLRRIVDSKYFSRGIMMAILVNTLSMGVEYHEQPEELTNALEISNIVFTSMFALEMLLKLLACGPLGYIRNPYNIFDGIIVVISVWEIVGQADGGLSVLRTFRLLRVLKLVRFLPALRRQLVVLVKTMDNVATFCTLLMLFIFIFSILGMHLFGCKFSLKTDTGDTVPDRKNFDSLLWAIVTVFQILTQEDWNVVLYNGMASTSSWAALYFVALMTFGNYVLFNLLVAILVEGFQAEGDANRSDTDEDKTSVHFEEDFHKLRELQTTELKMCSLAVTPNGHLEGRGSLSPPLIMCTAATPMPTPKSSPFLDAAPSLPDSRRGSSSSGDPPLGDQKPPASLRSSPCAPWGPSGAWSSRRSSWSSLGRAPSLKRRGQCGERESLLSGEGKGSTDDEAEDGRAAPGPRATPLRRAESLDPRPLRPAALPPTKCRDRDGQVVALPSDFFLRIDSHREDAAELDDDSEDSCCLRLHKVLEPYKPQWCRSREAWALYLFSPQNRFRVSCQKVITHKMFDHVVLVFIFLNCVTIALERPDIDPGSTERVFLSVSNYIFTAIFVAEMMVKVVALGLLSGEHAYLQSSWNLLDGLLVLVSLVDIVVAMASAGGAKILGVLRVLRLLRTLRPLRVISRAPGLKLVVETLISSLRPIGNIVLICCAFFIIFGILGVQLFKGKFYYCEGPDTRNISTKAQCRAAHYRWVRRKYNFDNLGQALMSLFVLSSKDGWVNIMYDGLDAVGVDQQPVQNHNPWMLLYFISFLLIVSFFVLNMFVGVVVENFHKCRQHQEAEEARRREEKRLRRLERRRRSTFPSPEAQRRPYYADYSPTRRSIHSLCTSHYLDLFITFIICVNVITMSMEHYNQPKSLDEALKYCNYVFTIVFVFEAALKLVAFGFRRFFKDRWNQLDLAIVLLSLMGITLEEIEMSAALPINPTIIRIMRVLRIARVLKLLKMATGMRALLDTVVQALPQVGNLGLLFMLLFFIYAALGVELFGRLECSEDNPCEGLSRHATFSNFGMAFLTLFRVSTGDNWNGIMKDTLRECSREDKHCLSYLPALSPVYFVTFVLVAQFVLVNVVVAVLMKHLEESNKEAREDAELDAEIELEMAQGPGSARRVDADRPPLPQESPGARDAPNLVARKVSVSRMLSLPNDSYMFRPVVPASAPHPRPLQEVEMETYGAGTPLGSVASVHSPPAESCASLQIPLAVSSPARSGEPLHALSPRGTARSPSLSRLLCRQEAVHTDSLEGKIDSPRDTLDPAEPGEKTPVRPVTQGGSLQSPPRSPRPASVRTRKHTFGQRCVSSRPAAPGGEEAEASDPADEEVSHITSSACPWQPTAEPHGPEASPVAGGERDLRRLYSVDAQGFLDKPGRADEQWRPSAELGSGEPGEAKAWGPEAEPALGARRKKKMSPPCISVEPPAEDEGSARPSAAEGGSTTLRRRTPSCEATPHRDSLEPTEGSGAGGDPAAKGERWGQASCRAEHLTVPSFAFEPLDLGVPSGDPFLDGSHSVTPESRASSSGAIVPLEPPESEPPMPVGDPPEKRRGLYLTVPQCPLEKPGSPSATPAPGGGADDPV
Briefly: Inhibitory effect for intracellular calcium response via Cav3.2 T-type Ca2+ channels (FLIPR Calcium 3 Assay Kit). The test is classed as cell-based.
Details: not given
A general note: Calcium flux is commonly read through the fluorescence of an indicator in the cells.
Take `CCOC(C)(C)c1nc2cc(C(=O)NC3CCOCC3)cc(C)n2c1CC1CCC(F)(F)CC1` [Compound 1, 3-[(4,4-Difluorocyclohexyl)methyl]-2-(2-ethoxypropan-2-yl)-5-methyl-N-(tetrahydro-2H-pyran-4-yl)imidazo[1,2-a]pyridine-7-carboxamide]: the IC50 is not above 100 nM.

As to `CC1(CNC(=O)c2cc(C#N)n3c(CC4CCC(F)(F)CC4)c(C(F)(F)F)nc3c2)CCCO1` (stereo not drawn) [Compound 2, 5-Cyano-3-[(4,4-difluorocyclohexyl)methyl]-N-[(2-methyltetrahydrofuran-2-yl)methyl]-2-(trifluoromethyl)imidazo[1,2-a]pyridine-7-carboxamide], the IC50 is not above 100 nM.

As to `N#Cc1cc(C(=O)NCC2CCOC2)cc2nc(C(F)(F)F)c(CC3CCC(F)(F)CC3)n12` (stereo not drawn) [Compound 3, 5-Cyano-3-[(4,4-difluorocyclohexyl)methyl]-N-[(tetrahydrofuran-3-yl)methyl]-2-(trifluoromethyl)imidazo[1,2-a]pyridine-7-carboxamide], the IC50 was not above 100 nM.

On to `Cc1cc(C(=O)NC2CCOCC2)cc2nc(C(C)(C)C)c(CC3CCC(F)(F)CC3)n12` [Compound 4, 2-tert-Butyl-3-[(4,4-difluorocyclohexyl)methyl]-5-methyl-N-(tetrahydro-2H-pyran-4-yl)imidazo[1,2-a]pyridine-7-carboxamide], for which the IC50 was not above 100 nM.

Regarding `CC(F)(F)c1nc2cc(C(=O)Nc3ccccc3)c(Cl)cn2c1CC1CCC(F)(F)CC1` [Compound 5, 6-Chloro-3-[(4,4-difluorocyclohexyl)methyl]-2-(1,1-difluoroethyl)-N-phenylimidazo[1,2-a]pyridine-7-carboxamide], the IC50 was not above 100 nM.

In the case of `O=C(Nc1ccccc1)c1cc2nc(C3CC3)c(CC3CCC(F)(F)CC3)n2cc1Cl` [Compound 6, 6-Chloro-2-cyclopropyl-3-[(4,4-difluorocyclohexyl)methyl]-N-phenylimidazo[1,2-a]pyridine-7-carboxamide], the IC50 was not above 100 nM.

As to `O=C(Nc1ccccc1)c1cc2nc(C3CC(F)(F)C3)c(CC3CCC(F)(F)CC3)n2cc1Cl` [Compound 7, 6-Chloro-2-(3,3-difluorocyclobutyl)-3-[(4,4-difluorocyclohexyl)methyl]-N-phenylimidazo[1,2-a]pyridine-7-carboxamide], the IC50 was not above 100 nM.

Turning to `Cc1cc(C(=O)Nc2ccccc2)cc2nc(C(C)(C)O)c(CC3CCC(F)(F)CC3)n12` [Compound 8, 3-[(4,4-Difluorocyclohexyl)methyl]-2-(2-hydroxypropan-2-yl)-5-methyl-N-phenylimidazo[1,2-a]pyridine-7-carboxamide], the IC50 is not above 100 nM.

As for `Cc1cc(C(=O)NC2CC(F)(F)C2)cc2nc(C(C)(C)O)c(CC3CCC(F)(F)CC3)n12` [Compound 10, N-(3,3-Difluorocyclobutyl)-3-[(4,4-difluorocyclohexyl)methyl]-2-(2-hydroxypropan-2-yl)-5-methylimidazo[1,2-a]pyridine-7-carboxamide], the concentration for half-maximal inhibition (IC50) was not above 100 nM.

As for `[2H]C([2H])([2H])OC(C)(C)c1nc2cc(C(=O)NC3CCOCC3)cc(C)n2c1CC1CCC(F)(F)CC1` [Compound 11, 3-[(4,4-Difluorocyclohexyl)methyl]-2-(2-methoxy-d3-propan-2-yl)-5-methyl-N-(tetrahydro-2H-pyran-4-yl)imidazo[1,2-a]pyridine-7-carboxamide], the IC50 was not above 100 nM.

`O=C(NC1CCC(F)(F)CC1)c1cc2nc(C3CC3)c(CC3CCC(F)(F)CC3)n2cc1Cl` [Compound 14, 6-Chloro-2-cyclopropyl-N-(4,4-difluorocyclohexyl)-3-[(4,4-difluorocyclohexyl)methyl]imidazo[1,2-a]pyridine-7-carboxamide]: the IC50 is not above 100 nM.

Take `CC(=O)c1nc2cc(C(=O)Nc3ccccc3)cc(C)n2c1CC1CCC(F)(F)CC1` [Compound 19, 2-Acetyl-3-[(4,4-difluorocyclohexyl)methyl]-5-methyl-N-phenylimidazo[1,2-a]pyridine-7-carboxamide]: the IC50 was not above 100 nM.

`CC(F)(F)c1nc2cc(C(=O)NCC3CC3)c(Cl)cn2c1CC1CCC(F)(F)CC1` [Compound 21, 6-Chloro-N-(cyclopropylmethyl)-3-[(4,4-difluorocyclohexyl)methyl]-2-(1,1-difluoroethyl)imidazo[1,2-a]pyridine-7-carboxamide]: the IC50 is not above 100 nM.

Turning to `CC(F)(F)c1nc2cc(C(=O)NC3CCC3)c(Cl)cn2c1CC1CCC(F)(F)CC1` [Compound 22, 6-Chloro-N-cyclobutyl-3-[(4,4-difluorocyclohexyl)methyl]-2-(1,1-difluoroethyl)imidazo[1,2-a]pyridine-7-carboxamide], the IC50 is not above 100 nM.

Turning to `CC1(C)CC(NC(=O)c2cc3nc(C(C)(F)F)c(CC4CCC(F)(F)CC4)n3cc2Cl)CCO1` (stereo not drawn) [Compound 23, 6-Chloro-3-[(4,4-difluorocyclohexyl)methyl]-2-(1,1-difluoroethyl)-N-(2,2-dimethyltetrahydro-2H-pyran-4-yl)imidazo[1,2-a]pyridine-7-carboxamide], the IC50 is not above 100 nM.

On to `CC(F)(F)c1nc2cc(C(=O)NCC3CCOC3)c(Cl)cn2c1CC1CCC(F)(F)CC1` (stereo not drawn) [Compound 24, 6-Chloro-3-[(4,4-difluorocyclohexyl)methyl]-2-(1,1-difluoroethyl)-N-[(tetrahydrofuran-3-yl)methyl]imidazo[1,2-a]pyridine-7-carboxamide], for which the IC50 was not above 100 nM.

As for `CC(F)(F)c1nc2cc(C(=O)NC3CCC(O)CC3)c(Cl)cn2c1CC1CCC(F)(F)CC1` (stereo not drawn) [Compound 25, 6-Chloro-3-[(4,4-difluorocyclohexyl)methyl]-2-(1,1-difluoroethyl)-N-(4-hydroxycyclohexyl)imidazo[1,2-a]pyridine-7-carboxamide], the IC50 is not above 100 nM.

Take `CC(C)(O)CNC(=O)c1cc2nc(C(C)(F)F)c(CC3CCC(F)(F)CC3)n2cc1Cl` [Compound 26, 6-Chloro-3-[(4,4-difluorocyclohexyl)methyl]-2-(1,1-difluoroethyl)-N-(2-hydroxy-2-methylpropyl)imidazo[1,2-a]pyridine-7-carboxamide]: the IC50 is not above 100 nM.

Take `CCC(F)(F)c1nc2cc(C(=O)NC3CCOCC3)cc(C)n2c1CC1CCC(F)(F)CC1` [Compound 27, 3-[(4,4-Difluorocyclohexyl)methyl]-2-(1,1-difluoropropyl)-5-methyl-N-(tetrahydro-2H-pyran-4-yl)imidazo[1,2-a]pyridine-7-carboxamide]: the IC50 is not above 100 nM.

Regarding `O=C(NC1CCOCC1)c1cc(Br)n2c(CC3CCC(F)(F)CC3)c(C(F)(F)F)nc2c1` [Compound 39], the IC50 was not above 100 nM.

With `O=Cc1cc(C(=O)NC2CCOCC2)cc2nc(C(F)(F)F)c(CC3CCC(F)(F)CC3)n12` [Compound 45, 3-[(4,4-Difluorocyclohexyl)methyl]-5-formyl-N-(tetrahydro-2H-pyran-4-yl)-2-(trifluoromethyl)imidazo[1,2-a]pyridine-7-carboxamide], the IC50 is not above 100 nM.

Take `O=C(NC1CCOCC1)c1cc(CF)n2c(CC3CCC(F)(F)CC3)c(C(F)(F)F)nc2c1` [Compound 47, 3-[(4,4-Difluorocyclohexyl)methyl]-5-(fluoromethyl)-N-(tetrahydro-2H-pyran-4-yl)-2-(trifluoromethyl)imidazo[1,2-a]pyridine-7-carboxamide]: the IC50 is not above 100 nM.

Regarding `O=C(NC1CCOCC1)c1cc(C(F)F)n2c(CC3CCC(F)(F)CC3)c(C(F)(F)F)nc2c1` [Compound 48, 3-[(4,4-Difluorocyclohexyl)methyl]-5-(difluoromethyl)-N-(tetrahydro-2H-pyran-4-yl)-2-(trifluoromethyl)imidazo[1,2-a]pyridine-7-carboxamide], the IC50 is not above 100 nM.

In the case of `O=C(NC1CCOCC1)c1cc(O)n2c(CC3CCC(F)(F)CC3)c(C(F)(F)F)nc2c1` [Compound 49, 3-[(4,4-Difluorocyclohexyl)methyl]-5-hydroxy-N-(tetrahydro-2H-pyran-4-yl)-2-(trifluoromethyl)imidazo[1,2-a]pyridine-7-carboxamide], the IC50 is not above 100 nM.

Regarding `CC(C)(O)CNC(=O)c1cc(C#N)n2c(CC3CCC(F)(F)CC3)c(C(F)(F)F)nc2c1` [Compound 51, 5-Cyano-3-[(4,4-difluorocyclohexyl)methyl]-N-(2-hydroxy-2-methylpropyl)-2-(trifluoromethyl)imidazo[1,2-a]pyridine-7-carboxamide], the IC50 is not above 100 nM.

The same test, now with this note: human Cav3.2-expressing KJMGER8 cells (Namalwa-derived); calcium response induced by 5 mmol/L CaCl2; 3 μmol/L mibefradil as reference; read-out: IC50 for the human Cav3.2 T-type Ca2+ current.
In the case of `Cc1cc(C(=O)NC2CCC(F)(F)CC2)cc2nc(C(C)(C)O)c(CC3CCC(F)(F)CC3)n12` [Compound 9, N-(4,4-Difluorocyclohexyl)-3-[(4,4-difluorocyclohexyl)methyl]-2-(2-hydroxypropan-2-yl)-5-methylimidazo[1,2-a]pyridine-7-carboxamide], the IC50 is not above 100 nM.

For the molecule `Cc1cc(C(=O)Nc2ccccc2)cc2nc(C(C)O)c(CC3CCC(F)(F)CC3)n12` (stereo not drawn) [Compound 20, 3-[(4,4-Difluorocyclohexyl)methyl]-2-(1-hydroxyethyl)-5-methyl-N-phenylimidazo[1,2-a]pyridine-7-carboxamide], the concentration for half-maximal inhibition (IC50) is not above 100 nM.

Turning to `Cc1cc(NC(=O)c2cc3nc(C(C)(C)Cl)c(S(=O)(=O)N4CC(F)(F)C4)n3cc2Cl)on1` [Compound 28, 6-Chloro-2-(2-chloropropan-2-yl)-3-(3,3-difluoroazetidin-1-ylsulfonyl)-N-(3-methylisoxazol-5-yl)imidazo[1,2-a]pyridine-7-carboxamide], the IC50 was not above 100 nM.

Turning to `Cc1cc(C(=O)NC2CCOCC2)cc2nc(C(C)C)c(N(C)C3CCCCC3)n12` [Compound 34, 3-[Cyclohexyl(methyl)amino]-2-isopropyl-5-methyl-N-(tetrahydro-2H-pyran-4-yl)imidazo[1,2-a]pyridine-7-carboxamide], the IC50 was not above 100 nM.

On to `C#Cc1cc(C(=O)NC2CCOCC2)cc2nc(C(F)(F)F)c(CC3CCC(F)(F)CC3)n12` [Compound 50, 3-[(4,4-Difluorocyclohexyl)methyl]-5-ethynyl-N-(tetrahydro-2H-pyran-4-yl)-2-(trifluoromethyl)imidazo[1,2-a]pyridine-7-carboxamide], for which the IC50 was not above 100 nM.
